Test systems include HCT-116; Hs-578T; PC-3; SK-MEL-2; RPMI-8226; MDA-MB-231; HCC 2998; OVCAR-3; Malme-3M; NCI-H460; IGROV-1; SF-295; NCI-H23; NCI/ADR-RES; UACC-257; ACHN; T47D; M14; LOX IMVI; CCRF-CEM.
What all share (assay): DTP human tumour cell line panel, 48 h

Each structure is given as a SMILES string.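 Each compound was tested at five concentrations against cells in 96-well plates for 48 hours. GI50: concentration for 50% inhibition of growth.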 Activity calls are given as the source filed them. Rule as the data show it: active = GI50 up to about 1.1 µM and inactive = higher.

By GI50 is commonly meant the concentration at which growth is held to half of that of the control. Take `Oc1ccc2ccccc2c1OCc1nnc(CCCCCCCCc2nnc(COc3c(O)ccc4ccccc34)n2Nc2ccccc2)n1Nc1ccccc1`: the GI50 is 10.9 µM (inactive) in the experiment on HCT-116; 18.2 µM (inactive) in the experiment on Hs-578T; 2.68 µM (inactive) in the experiment with PC-3; 18.2 µM (inactive) in the experiment with SK-MEL-2; 1.02 µM (active) with RPMI-8226; 15.3 µM (inactive) in the experiment on MDA-MB-231. The GI50 with HCC 2998 is 8.05 µM (inactive); in the experiment on OVCAR-3 it was 12.9 µM (inactive); with Malme-3M it was 11.1 µM (inactive); with NCI-H460, 2.7 µM (inactive); with IGROV-1, 7.05 µM (inactive); in the experiment on SF-295, 0.223 µM (active). Also, the GI50 was 9.29 µM (inactive) in the experiment with NCI-H23; 8.2 µM (inactive) in the experiment on NCI/ADR-RES; 6.38 µM (inactive) in the experiment with UACC-257; 1.23 µM (inactive) with ACHN; 25.9 µM (inactive) with T47D; 2.56 µM (inactive) with M14.
In the case of `NC(=O)c1ncn(C2CCC(CP(=O)(O)O)C2)c1N` (stereo unspecified), the GI50 with HCT-116, in the experiment with Hs-578T, in the experiment on LOX IMVI, with PC-3, in the experiment on SK-MEL-2 and with RPMI-8226 was > 100 µM (inactive) each time. The GI50 in the experiment on MDA-MB-231, in the experiment with HCC 2998, with OVCAR-3, in the experiment on Malme-3M, in the experiment with NCI-H460 and with IGROV-1 was > 100 µM (inactive) throughout. Moreover, the GI50 with SF-295, in the experiment with NCI-H23, in the experiment with NCI/ADR-RES, with UACC-257, with ACHN and with T47D was > 100 µM (inactive) in each case. In the experiment with M14, the GI50 is > 100 µM (inactive).
In the case of `N=c1oc2ccccc2cc1-c1nc2ccccc2[nH]1`, the GI50 with HCT-116 was 49.1 µM (inactive); in the experiment on CCRF-CEM it was 14 µM (inactive); in the experiment on Hs-578T, 41 µM (inactive); with LOX IMVI, 32.5 µM (inactive); in the experiment on PC-3, 78 µM (inactive); in the experiment on SK-MEL-2, 49.2 µM (inactive). Also, the GI50 with RPMI-8226 is 26.3 µM (inactive); in the experiment with MDA-MB-231 it was 22.4 µM (inactive); with HCC 2998, 71.3 µM (inactive); with Malme-3M, 24.9 µM (inactive); in the experiment on NCI-H460, 49.1 µM (inactive); in the experiment with IGROV-1, 18.9 µM (inactive). For the same molecule, the GI50 with SF-295 is 78.3 µM (inactive); with NCI/ADR-RES, 22.3 µM (inactive); in the experiment with UACC-257 it was > 100 µM (inactive); in the experiment on ACHN, 16.9 µM (inactive); in the experiment with T47D, 16.7 µM (inactive); in the experiment with M14, 70.8 µM (inactive).
In the case of `CN(C)CC(NC(NCS)C(=O)NCCNc1ccc(NCCNC(=O)C(NCS)NC(CN(C)C)OCCl)c2c1C(=O)c1c(O)ccc(O)c1C2=O)OCCl` (stereo unspecified), the GI50 was 0.0249 µM (active) with HCT-116; 0.243 µM (active) in the experiment on Hs-578T; 0.0245 µM (active) with LOX IMVI; 0.256 µM (active) with PC-3; 1.45 µM (inactive) in the experiment on SK-MEL-2; 0.0016 µM (active) with RPMI-8226. Further, the GI50 in the experiment with MDA-MB-231 was 0.0547 µM (active); in the experiment on HCC 2998, 0.237 µM (active); in the experiment with OVCAR-3, 0.387 µM (active); with Malme-3M, 0.0605 µM (active); in the experiment with NCI-H460, < 0.001 µM (active); in the experiment with IGROV-1, 0.145 µM (active). The GI50 in the experiment on SF-295 is 0.00518 µM (active); in the experiment on NCI-H23 it was 0.00877 µM (active); in the experiment with NCI/ADR-RES, 1.58 µM (inactive); in the experiment with UACC-257 it was 0.929 µM (active); in the experiment on ACHN, < 0.001 µM (active); in the experiment with T47D it was 0.0327 µM (active). Moreover, the GI50 in the experiment on M14 was 0.124 µM (active).
For `N=c1oc2ccc([N+](=O)[O-])cc2cc1C(=O)Nc1ccccn1`, the GI50 is 32.4 µM (inactive) with HCT-116; 31.5 µM (inactive) in the experiment with CCRF-CEM; 29.1 µM (inactive) in the experiment with Hs-578T; 33.5 µM (inactive) in the experiment with LOX IMVI; 12.9 µM (inactive) with PC-3; 16.2 µM (inactive) in the experiment on SK-MEL-2. For the same molecule, the GI50 is 54.2 µM (inactive) with RPMI-8226; 21.6 µM (inactive) in the experiment on MDA-MB-231; 91.4 µM (inactive) with HCC 2998; 20.6 µM (inactive) in the experiment with OVCAR-3; 21.7 µM (inactive) in the experiment on Malme-3M; 69 µM (inactive) in the experiment on NCI-H460. The GI50 in the experiment with IGROV-1 was 31.7 µM (inactive); in the experiment with NCI-H23, 41.3 µM (inactive); in the experiment with NCI/ADR-RES, 97.3 µM (inactive); in the experiment on UACC-257 it was > 100 µM (inactive); in the experiment with ACHN it was 35.5 µM (inactive); with T47D it was 26.8 µM (inactive). In the experiment with M14, the GI50 is 36.8 µM (inactive).
On to `CN(C)N1C(=O)SCC(c2ccccc2)(c2ccccc2)C1=O`, for which the GI50 in the experiment with HCT-116 was > 100 µM (inactive); with CCRF-CEM, > 100 µM (inactive); with Hs-578T, > 100 µM (inactive); with LOX IMVI, > 100 µM (inactive); with PC-3, > 100 µM (inactive); in the experiment with SK-MEL-2, 63.4 µM (inactive). For the same molecule, the GI50 is 78 µM (inactive) with RPMI-8226; > 100 µM (inactive) with MDA-MB-231; > 100 µM (inactive) with HCC 2998; > 100 µM (inactive) in the experiment on OVCAR-3; > 100 µM (inactive) with Malme-3M; > 100 µM (inactive) in the experiment with NCI-H460. The GI50 with SF-295, in the experiment on NCI-H23, in the experiment with NCI/ADR-RES, with UACC-257, with ACHN and in the experiment with T47D was > 100 µM (inactive) throughout. Besides, the GI50 in the experiment with M14 is > 100 µM (inactive).
Turning to `COc1cccc(N2C(=O)C3c4[nH]c5ccccc5c4C4c5ccccc5CCC4C3C2=O)c1` (stereo unspecified), the GI50 in the experiment on HCT-116 was 4.34 µM (inactive); with CCRF-CEM, > 10 µM (inactive); in the experiment with Hs-578T, 3 µM (inactive); in the experiment on LOX IMVI it was > 10 µM (inactive); with PC-3, > 6.7 µM (inactive); in the experiment on SK-MEL-2 it was > 10 µM (inactive). Further, the GI50 is > 10 µM (inactive) in the experiment on RPMI-8226; 5.06 µM (inactive) in the experiment on MDA-MB-231; > 10 µM (inactive) with HCC 2998; 5.5 µM (inactive) in the experiment on OVCAR-3; 3.75 µM (inactive) with Malme-3M; 4.82 µM (inactive) in the experiment on NCI-H460. The GI50 in the experiment on IGROV-1 is > 7.98 µM (inactive); in the experiment with SF-295 it was > 10 µM (inactive); in the experiment with NCI-H23, > 10 µM (inactive); in the experiment on NCI/ADR-RES, 4.76 µM (inactive); in the experiment on ACHN, > 10 µM (inactive); with T47D, > 10 µM (inactive). For the same molecule, the GI50 with M14 was 4.92 µM (inactive).
In the case of `COC(C/C(=C/CO[Si](C(C)C)(C(C)C)C(C)C)C(=O)N(C(=O)OC(C)(C)C)c1ccccc1I)OC`, the GI50 in the experiment with HCT-116 is 11.8 µM (inactive); in the experiment with CCRF-CEM it was > 10 µM (inactive); in the experiment with Hs-578T, 83.4 µM (inactive); in the experiment with LOX IMVI, 18.2 µM (inactive); in the experiment on PC-3, 23.6 µM (inactive); in the experiment on SK-MEL-2, 17.8 µM (inactive). Besides, the GI50 with RPMI-8226 was 15.2 µM (inactive); with MDA-MB-231, > 10 µM (inactive); in the experiment on HCC 2998, 40.6 µM (inactive); in the experiment with OVCAR-3, 29.2 µM (inactive); in the experiment on NCI-H460 it was 31.8 µM (inactive); in the experiment with IGROV-1, 0.0262 µM (active). Also, the GI50 in the experiment on SF-295 was 10.7 µM (inactive); with NCI-H23, 39.7 µM (inactive); with NCI/ADR-RES, > 100 µM (inactive); in the experiment with UACC-257 it was 38.8 µM (inactive); in the experiment on ACHN it was 45.9 µM (inactive); in the experiment on T47D it was 36.8 µM (inactive). Moreover, in the experiment with M14, the GI50 was 47.2 µM (inactive).
For `O=c1[nH]/c(=C/c2ccc(OCc3ccccc3)cn2)c(=O)[nH]/c1=C/c1ccccc1`, the GI50 with HCT-116 was 0.146 µM (active); with CCRF-CEM, 0.126 µM (active); in the experiment on Hs-578T, 0.185 µM (active); with LOX IMVI, 0.207 µM (active); with PC-3, 0.141 µM (active); in the experiment on RPMI-8226, 0.123 µM (active). The GI50 with MDA-MB-231 is 0.59 µM (active); with HCC 2998, 0.175 µM (active); with OVCAR-3 it was 0.114 µM (active); with NCI-H460, 0.132 µM (active); with IGROV-1 it was 0.207 µM (active); in the experiment on SF-295, 0.107 µM (active). In addition, the 50% growth inhibitory concentration (GI50) is 0.107 µM (active) in the experiment with NCI-H23; 0.0794 µM (active) in the experiment with NCI/ADR-RES; 0.296 µM (active) in the experiment on ACHN; > 24.7 µM (inactive) in the experiment with T47D; 0.129 µM (active) with M14.
Turning to `Cc1c(CCOC=O)c(=O)[nH]c2nncn12`, the GI50 in the experiment on HCT-116, in the experiment with CCRF-CEM, with Hs-578T, with LOX IMVI, in the experiment with PC-3 and in the experiment with RPMI-8226 was > 100 µM (inactive) in each case. Also, the GI50 with MDA-MB-231, in the experiment on HCC 2998, in the experiment with OVCAR-3, in the experiment on Malme-3M, in the experiment with NCI-H460 and in the experiment with IGROV-1 was > 100 µM (inactive) throughout. Also, the GI50 with SF-295, in the experiment on NCI-H23, in the experiment on NCI/ADR-RES, in the experiment with UACC-257, in the experiment on ACHN and with T47D was > 100 µM (inactive) throughout. The GI50 with M14 is > 100 µM (inactive).

These data come from ChEMBL document CHEMBL1201862, “PubChem BioAssay data set” (2004).
